According to patent US20160015669A1, “COMPOUND, 1, 3-DIOLEIN-2-LINOLEIN, AND PHARMACEUTICAL PREPARATION AND USE THEREOF” (ZHEJIANG KANGLAITE GROUP CO., LTD., priority 2014, published 2016):
Converted amounts (≈) assume the structure as drawn. Blank lines part the entries; values can stand above or below the compound they belong to.

Tests used:
Type in all cases: cell-based
[1] = tested on: PANC-1 (human pancreatic cancer cells); assay: MTT method, inhibition of cell growth in vitro; conditions: 48 h; for IC50: PANC-1, MTT
Excerpt: (§1) A. Experimental Materials and the Preparation Thereof: • (1) Cell lines: PANC-1 (human pancreatic cancer cells), SKOV3 (human ovarian cancer cells), MCF-7 (human breast cancer cells), SMMC-7721 (human liver cancer cells), A549 (human lung cancer cells), BGC-823 (human gastric cancer cells), COLO205 (human colonic cancer cells), storaged and passaged maintainably in Research and Evaluation Center for Pharmacology, Shanghai Institute of Pharmaceutical Industry; • (2) DMEM complete medium supplied with 10% newborn calf serum (GIBCO BRL), 1% of penicillin (100 U/mL)+streptomycin (100 μg/mL); • (3) 0.25% trypsin solution, purchased from Invitrogen Corp. and storaged at −20; • (4) Phosphate buffer (PBS): NaCl 8 g, KCl 0.2 g, Na2HPO4 1.15 g and KH2PO4 0.2 g, dissolved in 1 L double-distilled water and autoclaved at 121 for 20 min, then storaged at 4; • (5) MTT (AMRESCO) solution: 5 mg/ml in PBS; • (6) Formazan crystal dissolving solution: SDS 10 g, isobutanol 5 ml and concentrated hydrochloric acid 0.1 ml, dissolved in 100 ml of deionized double distilled water.
(§2) The inhibition effects of the compound of formula (I) on the above-mentioned cell lines were detected by using MTT method. The specific procedures were as follows:
(§3) (1) Cell culture: (a) Storaged cells were taken out from the liquid nitrogen, thawed quickly in a 37 water bath, then aseptically transferred into 6 ml of cellular medium in a 10 ml centrifugal tube, centrifuged at 1000 rpm for 5 min. The supernatant was discarded, then the precipitated cells were re-suspended in 5-6 ml cellular media by pipetting and transferred into a flask in a 37 incubator for cell culture; (b) Next day, the flask was taken out from the incubator and the used medium was discarded, then the cells were incubated in 5-6 ml fresh medium in the 37 incubator; (c) On the third day, the flask was taken out from the incubator and the used medium was discarded, then 2-3 ml of PBS (pH7.4) was added into the flask with rocking for cleaning it and the used PBS was discarded. Such a cellular cleaning step was repeated once again. 3-5 drops of 0.25% trypsin solution were added into the flask with sloshing, thus well-distributed in it. The flask was capped and placed in a 37 incubator for about 3 min, and the separation of cells from the flask wall was observed under the microscope. 2 ml of cellular medium was added and cells were separated completely from the flask wall by pipetting, then the cell suspension was transferred into 2 separate clean flasks, each containing 5-6 ml medium. The cell suspension was well-distributed by pipetting, then the flask was placed in a 37 incubator. (d) Step(c) was repeated every other day. In the whole cultivation process, adherent cells were not allowed to grow too dense and suspension cells were always maintained at a logarithmic growth stage.
(§4) (2) Preparation of the sample and the control: A proper amount of sample of the compound of formula (I) was dissolved in DMSO to obtain a solution in a concentration of 10 mg/ml. This solution was diluted in a gradient dilution with PBS to obtain a set of sample solutions in the concentration of 10 mg/ml, 5000 μg/ml, 2500 μg/ml, 1250 μg/ml, 625 μg/ml and 312.5 μg/ml, respectively.
(§5) (3) Each diluted sample solution was added into duplicated wells of a 96 well flat-bottom microplate (10 μl/well). The correspondingly diluted DMSO solutions, as controls, were added into the wells of the microplate.
(§6) (4) Cells in a logarithmic growth stage were trypsinized and washed, then re-suspended in the medium containing 10% calf serum. The number of living cells was counted in Trypan blue dye exclusion method and cell suspensions were adjusted into a density of 2×10^5 cell/ml.
(§7) (5) The cell-contained 96 well flat-bottom microplate was placed in a 37 incubator and cells were incubated under 5% CO2 for 48 h.
(§8) (6) 20 it of 5 mg/ml MTT solution was added into each well and cells were incubated continuously in the incubator for 3-4 h. […]

[2] = tested on: MCF-7 (human breast cancer cells); assay: MTT method, inhibition of cell growth in vitro; conditions: 48 h
Excerpt: as §1, §2, §3, §4, §5, §6, §7, §8

[3] = tested on: SMMC-7721 (human liver cancer cells); assay: MTT method, inhibition of cell growth in vitro; conditions: 48 h; for IC50: SMMC-7721, MTT
Excerpt: as §1, §2, §3, §4, §5, §6, §7, §8

[4] = tested on: A549 (human lung cancer cells); assay: MTT method, inhibition of cell growth in vitro; conditions: 48 h
Excerpt: as §1, §2, §3, §4, §5, §6, §7, §8

[5] = tested on: COLO205 (human colonic cancer cells); assay: MTT method, inhibition of cell growth in vitro; conditions: 48 h; for IC50: COLO 205, COLO205, MTT
Excerpt: as §1, §2, §3, §4, §5, §6, §7, §8

[6] = tested on: BGC-823 (human gastric cancer cells); assay: MTT method, inhibition of cell growth in vitro; conditions: 48 h; for IC50: BGC-823, MTT
Excerpt: as §1, §2, §3, §4, §5, §6, §7, §8

[7] = tested on: SKOV3 (human ovarian cancer cells); assay: MTT method, inhibition of cell growth in vitro; conditions: 48 h
Excerpt: as §1, §2, §3, §4, §5, §6, §7, §8

7 human tumor cell lines = assay: MTT method, overall conclusion on 7 human tumor cell lines; conditions: various concentrations
Excerpt: as §1
The inhibition effects of the compound of formula (I) on the above-mentioned cell lines were detected by using MTT method. The specific procedures were as follows: […]

IC50 [1]: 509 µg/mL
IC50 ([2]; MCF7, MCF-7, MTT): 106 µg/mL
IC50 [3]: 150 µg/mL
IC50 ([4]; A549, MTT): 156 µg/mL
IC50 [5]: 209 µg/mL
IC50 [6]: 85 µg/mL
IC50 ([7]; SK-OV-3, SKOV3, MTT): 92.6 µg/mL
Structure (SMILES): CCCCCC=CCC=CCCCCCCCC(=O)OC(COC(=O)CCCCCCCC=CCCCCCCCC)COC(=O)CCCCCCCC=CCCCCCCCC (centres unmarked) [compound of formula (I), 1,3-diolein-2-linolein]
inhibition at 62.5 µg/mL ([1]; PANC-1, 62.5 μg/ml, read-out: Inhibition rate on the cell growth): 0.8%
inhibition at 125 µg/mL ([1]; PANC-1, 125 μg/ml, read-out: Inhibition rate on the cell growth): 2.01%
inhibition at 250 µg/mL ([1]; PANC-1, 250 μg/ml, read-out: Inhibition rate on the cell growth): 25.9%
inhibition at 500 µg/mL ([1]; PANC-1, 500 μg/ml, read-out: Inhibition rate on the cell growth): 48.1%
inhibition at 1000 µg/mL ([1]; PANC-1, 1000 μg/ml, read-out: Inhibition rate on the cell growth): 75%
inhibition at 31.25 µg/mL ([2]; MCF7, MCF-7, 31.25 μg/ml, read-out: Inhibition rate on the cell growth): 13.3%
inhibition at 62.5 µg/mL ([2]; MCF7, MCF-7, 62.5 μg/ml, read-out: Inhibition rate on the cell growth): 31.5%
inhibition at 125 µg/mL ([2]; MCF7, MCF-7, 125 μg/ml, read-out: Inhibition rate on the cell growth): 62.3%
inhibition at 250 µg/mL ([2]; MCF7, MCF-7, 250 μg/ml, read-out: Inhibition rate on the cell growth): 67.1%
inhibition at 500 µg/mL ([2]; MCF7, MCF-7, 500 μg/ml, read-out: Inhibition rate on the cell growth): 68.8%
inhibition at 1000 µg/mL ([2]; MCF7, MCF-7, 1000 μg/ml, read-out: Inhibition rate on the cell growth): 99.7%
inhibition at 31.25 µg/mL ([3]; SMMC-7721, 31.25 μg/ml, read-out: Inhibition rate on the cell growth): 8.81%
inhibition at 62.5 µg/mL ([3]; SMMC-7721, 62.5 μg/ml, read-out: Inhibition rate on the cell growth): 13.4%
inhibition at 125 µg/mL ([3]; SMMC-7721, 125 μg/ml, read-out: Inhibition rate on the cell growth): 38.5%
inhibition at 250 µg/mL ([3]; SMMC-7721, 250 μg/ml, read-out: Inhibition rate on the cell growth): 62.3%
inhibition at 500 µg/mL ([3]; SMMC-7721, 500 μg/ml, read-out: Inhibition rate on the cell growth): 80%
inhibition at 1000 µg/mL ([3]; SMMC-7721, 1000 μg/ml, read-out: Inhibition rate on the cell growth): 98.8%
inhibition at 31.25 µg/mL ([4]; A549, 31.25 μg/ml, read-out: Inhibition rate on the cell growth): 5.16%
inhibition at 62.5 µg/mL ([4]; A549, 62.5 μg/ml, read-out: Inhibition rate on the cell growth): 25.6%
inhibition at 125 µg/mL ([4]; A549, 125 μg/ml, read-out: Inhibition rate on the cell growth): 46.4%
inhibition at 250 µg/mL ([4]; A549, 250 μg/ml, read-out: Inhibition rate on the cell growth): 50.5%
inhibition at 500 µg/mL ([4]; A549, 500 μg/ml, read-out: Inhibition rate on the cell growth): 67%
inhibition at 1000 µg/mL ([4]; A549, 1000 μg/ml, read-out: Inhibition rate on the cell growth): 98.2%
inhibition at 31.25 µg/mL ([5]; COLO 205, COLO205, 31.25 μg/ml, read-out: Inhibition rate on the cell growth): 8.95%
inhibition at 62.5 µg/mL ([5]; COLO 205, COLO205, 62.5 μg/ml, read-out: Inhibition rate on the cell growth): 10.7%
inhibition at 125 µg/mL ([5]; COLO 205, COLO205, 125 μg/ml, read-out: Inhibition rate on the cell growth): 12.6%
inhibition at 250 µg/mL ([5]; COLO 205, COLO205, 250 μg/ml, read-out: Inhibition rate on the cell growth): 43.9%
inhibition at 500 µg/mL ([5]; COLO 205, COLO205, 500 μg/ml, read-out: Inhibition rate on the cell growth): 82.3%
inhibition at 1000 µg/mL ([5]; COLO 205, COLO205, 1000 μg/ml, read-out: Inhibition rate on the cell growth): 93.8%
inhibition at 31.25 µg/mL ([6]; BGC-823, 31.25 μg/ml, read-out: Inhibition rate on the cell growth): 8.31%
inhibition at 62.5 µg/mL ([6]; BGC-823, 62.5 μg/ml, read-out: Inhibition rate on the cell growth): 63.8%
inhibition at 125 µg/mL ([6]; BGC-823, 125 μg/ml, read-out: Inhibition rate on the cell growth): 79%
inhibition at 250 µg/mL ([6]; BGC-823, 250 μg/ml, read-out: Inhibition rate on the cell growth): 76.2%
inhibition at 500 µg/mL ([6]; BGC-823, 500 μg/ml, read-out: Inhibition rate on the cell growth): 85%
inhibition at 1000 µg/mL ([6]; BGC-823, 1000 μg/ml, read-out: Inhibition rate on the cell growth): 98.5%
inhibition at 31.25 µg/mL ([7]; SK-OV-3, SKOV3, 31.25 μg/ml, read-out: Inhibition rate on the cell growth): 9.97%
inhibition at 62.5 µg/mL ([7]; SK-OV-3, SKOV3, 62.5 μg/ml, read-out: Inhibition rate on the cell growth): 34%
inhibition at 125 µg/mL ([7]; SK-OV-3, SKOV3, 125 μg/ml, read-out: Inhibition rate on the cell growth): 76.8%
inhibition at 250 µg/mL ([7]; SK-OV-3, SKOV3, 250 μg/ml, read-out: Inhibition rate on the cell growth): 79.4%
inhibition at 500 µg/mL ([7]; SK-OV-3, SKOV3, 500 μg/ml, read-out: Inhibition rate on the cell growth): 93.8%
inhibition at 1000 µg/mL ([7]; SK-OV-3, SKOV3, 1000 μg/ml, read-out: Inhibition rate on the cell growth): 99.3%
Inhibition on 7 human tumor cell lines (in words) (7 human tumor cell lines): obvious inhibition on 7 human tumor cell lines

IC50 [1]: 0.44 µg/mL (≈ 0.515 µM)
IC50 [3]: 0.12 µg/mL (≈ 0.141 µM)
IC50 [5]: 0.75 µg/mL (≈ 0.878 µM)
IC50 [6]: 0.24 µg/mL (≈ 0.281 µM)
Structure (SMILES): CC(=O)O[C@H]1C(=O)[C@@]2(C)[C@H]([C@H](OC(=O)c3ccccc3)[C@]3(O)C[C@H](OC(=O)[C@H](O)[C@@H](NC(=O)c4ccccc4)c4ccccc4)C(C)=C1C3(C)C)[C@]1(OC(C)=O)CO[C@@H]1C[C@@H]2O [Taxol, reference compound]
